Results: US11524003B2, “Alpha-amino esters of hydroxypropylthiazolidine carboxamide derivative and salt form, crystal polymorph thereof” (ObsEva S.A., priority 2016, dated 2022)

What was measured:
[1] = tested on: proinflammatory proteins (COX-2, p-cPLA2, p-p65, p-p38, p-ERK); assay: Western blot of proinflammatory proteins in human myometrial and amnion biopsies
Procedure: FIG. 79a is a Western blot showing the effects of oxytocin, nolasiban, and a combination thereof on the expression of phosphorylated p65 (p-p65), phosphorylated p38 (p-p38), and phosphorylated extracellular signal-regulated kinase (p-ERK) in N=6 term, pre-laboring myometrial biopsies collected from human female subjects undergoing caesarean section delivery. Samples were either unstimulated (“NS”), stimulated with oxytocin (“OT”), treated with nolasiban at a concentration of 1 μM, or treated with both oxytocin and nolasiban at a concentration of 1 μM for the indicated periods of time. A blot against β-actin was performed as a control. FIG. 79b is a Western blot showing the effects of oxytocin and/or varying concentration of compound II, optionally in combination with nolasiban, on the expression of p-p65, p-p38, and p-ERK in N=6 term, pre-laboring myometrial biopsies collected from human female subjects undergoing caesarean section delivery. Samples were either unstimulated (“NS”), stimulated with oxytocin (“OT”), treated with compound II at a concentration of 3 μM, or treated with both oxytocin and compound II at varying concentrations of compound II, both in the presence and absence of nolasiban at a concentration of 1 μM for the indicated periods of time. A blot against β-actin was performed as a control. […]

human FP = human FP (Homo sapiens, UniProt P43088); assay: IP3 synthesis in FP-transfected HEK293-EBNA cells; conditions: tested up to 10 μM
Sequence of human FP (P43088 whole entry): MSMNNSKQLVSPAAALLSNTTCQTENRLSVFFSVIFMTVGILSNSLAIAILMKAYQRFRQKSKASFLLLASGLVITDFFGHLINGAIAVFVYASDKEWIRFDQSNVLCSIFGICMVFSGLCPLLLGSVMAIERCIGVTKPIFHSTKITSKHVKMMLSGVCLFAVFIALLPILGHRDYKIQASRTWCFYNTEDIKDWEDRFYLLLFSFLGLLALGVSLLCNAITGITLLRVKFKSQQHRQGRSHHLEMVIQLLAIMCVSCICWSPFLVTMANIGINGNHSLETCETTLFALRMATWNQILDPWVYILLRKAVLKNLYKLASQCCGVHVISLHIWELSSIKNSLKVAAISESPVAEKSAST

[2] = Stability in HBSS buffer of the Caco-2 experiments; type: in vitro ADME; conditions: HBSS buffer (2% DMSO final concentration) at 37° C. for 60 and 120 minutes
Procedure: Stability of both compound I and compound II was assessed during the test. […] An aliquot of each solution was sampled at time zero (t=0) to assess the starting concentrations of the compounds. The solutions were incubated at 37° C. for the duration of the transport experiment. An aliquot of each solution was sampled at the end of experiment (t=120) to assess the final concentrations of compound I and compound II. Samples were analyzed by LC-MS.

## O=C(N[C@@H](CCO)c1ccc(F)cc1)[C@@H]1SCCN1S(=O)(=O)c1ccc(-c2ccccc2)cc1 [Compound II, 3-([1,1′-biphenyl]-4-ylsulfonyl)-N-[1-(4-fluorophenyl)-3-hydroxypropyl]-1,3-thiazolidine-2-carboxamide]
[1]
  Expression of proinflammatory proteins: capable of reducing the expression of various proinflammatory proteins
Human FP
  Agonist activity (IP3 synthesis when added alone): did not induce any synthesis of IP3
[2]
  Stability in HBSS buffer: stable
